Test results from US20230323410A1, “BACTERIAL CELLS AND METHODS FOR PRODUCTION OF 2-FLUORO-CIS,CIS-MUCONATE” (priority 2020, published 2023).
Like-named read-outs stand apart in the source and are kept apart here.

What was measured:
[1] = test system: P. knackmussii; assay: Shaken flask fermentation with 10 mM 2-FBz or 3-FBz; assay type: cell-based, Pseudomonas knackmussii; design: rate qp: unit not given here; conditions: for product formation rate qp: from 2-FBz; for rate qp: from 3-FBz; for qs: 10 mM 3-FBz
[2] = test system: P. putida KT2440; conditions: 30 mM glucose
[3] = test system: Pmuc10; assay: Microtiter plate cultivation: growth with metabolites of the bioconversion; conditions: 30 mM glucose; for Maximum growth rate μmax: Example 6 (improved method)
[4] = test system: CatR/Pcat; assay type: cell-based, P. putida KT2440
[5] = test system: P. putida KT2440; assay: Shaken flask fermentation with 10 mM 2-FBz or 3-FBz; assay type: cell-based, Pseudomonas putida
[6] = test system: Pmuc3 pSEVA228; assay type: cell-based, Pseudomonas putida; conditions: 30 mM glucose
[7] = test system: BenR/Pben; assay type: cell-based, P. putida KT2440
[8] = test system: XylS/Pm; assay type: cell-based, P. putida KT2440
[9] = test system: P. knackmussii; assay: Microtiter plate cultivation: growth with metabolites of the bioconversion; conditions: 30 mM glucose
[10] = test system: msfGFP reporter gene under control of BCD10; assay type: cell-based, P. putida KT2440; conditions: 5 mM 3-FBz (inducible systems), 30 mM glucose, FIG. 6
[11] = Example 6 (improved method), 5.0 mM additive
[12] = Example 6 (improved method), 10 mM additive
[13] = Example 6 (improved method), 15 mM additive
[14] = Example 6 (improved method), 20 mM additive

**Q.** How did the “product formation rate qp” value ([1]; Example 1) turn out when `O=C(O)/C=C\C=C(\F)C(=O)O` [Strain 2-FMA, 2-fluoro-cis,cis-muconate] was run?
**A.** 0.05 mmol gCDW^−1 h^−1

**Q.** And the “product formation rate qp” value ([1]; Example 6)?
**A.** 0.03 mmol gCDW^−1 h^−1

**Q.** What about the rate qp ([1]; Example 1) of the same molecule?
**A.** 0.05

**Q.** And the rate qp ([1]; Example 6)?
**A.** 0.09

**Q.** And the “reduction of growth rate and maximum biomass concentration” value ([2]; 15 mM, FIG. 14)?
**A.** 50%

**Q.** What about the “concentration up to which the growth profile was similar to cultures with glucose only” value ([2]; FIG. 14) of the same molecule?
**A.** up to 10 mM

**Q.** And the “Maximum growth rate μmax” value ([2]; Example 6 (improved method), 1.0 mM additive)?
**A.** 0.86 h⁻¹

**Q.** And the “Maximum growth rate μmax” value ([2]; Example 6 (improved method), 2.0 mM additive)?
**A.** 1.00 h⁻¹

**Q.** What about the “Maximum growth rate μmax” value [2, 11] of the same molecule?
**A.** 0.86 h⁻¹

**Q.** What about the “Maximum growth rate μmax” value [2, 12] of the same molecule?
**A.** 0.80 h⁻¹

**Q.** What about the “Maximum growth rate μmax” value [2, 13] of the same molecule?
**A.** 0.66 h⁻¹

**Q.** What about the “Maximum growth rate μmax” value [2, 14] of the same molecule?
**A.** no growth

**Q.** And the “Maximum growth rate μmax” value ([3]; 1 mM additive)?
**A.** 1.24 h⁻¹

**Q.** And the “Maximum growth rate μmax” value ([3]; 2.0 mM additive)?
**A.** 1.20 h⁻¹

**Q.** And the “Maximum growth rate μmax” value ([3]; 5 mM additive)?
**A.** 1.08 h⁻¹

**Q.** And the “Maximum growth rate μmax” value ([3]; 10 mM additive)?
**A.** 0.98 h⁻¹

**Q.** And the “Maximum growth rate μmax” value ([3]; 15 mM additive)?
**A.** 0.47 h⁻¹

**Q.** What about the “Maximum growth rate μmax” value ([3]; 20 mM additive) of the same molecule?
**A.** no growth

**Q.** And the “response to 1.0 mM as compared to 1.0 mM ccMA” value ([4]; 1.0 mM)?
**A.** 6.7 fold

**Q.** What about the “combined product formation rate qp” value ([5]; 10 mM 3-FBz) of the same molecule?
**A.** 0.06 mmol gCDW^−1 h^−1

**Q.** What about the “product formation rate qp” value ([5]; from 10 mM 2-FBz) of the same molecule?
**A.** 0.06 mmol gCDW^−1 h^−1

**Q.** Which results are given for `O=C(O)c1cccc(F)c1` [Strain 3-FBz, 3-fluorobenzoic acid]?
**A.** qs ([1]; Example 1): 0.090 mmol gCDW^−1 h^−1; qs ([1]; Example 6): 1.01 mmol gCDW^−1 h^−1; maximum concentration in the presence of which the strain was able to grow ([2]; substantially reduced μmax): 10 mM; Maximum growth rate μmax ([2]; Example 1, 5.0 mM additive): 0.36 h⁻¹; Maximum growth rate μmax ([2]; Example 1, 10 mM additive): 0.13 h⁻¹; Maximum growth rate μmax ([2]; Example 1, 15 mM additive): no growth; Maximum growth rate μmax ([2]; Example 1, 20 mM additive): no growth; Maximum growth rate μmax [2, 11]: 0.25 h⁻¹; Maximum growth rate μmax [2, 12]: 0.13 h⁻¹; Maximum growth rate μmax [2, 13]: no growth; concentration up to which no toxic effects were observed ([3]; FIG. 13): ≤ 20000 µM; highest concentration at which the strain was able to produce biomass ([3]; FIG. 13, strongly reduced rate and maximum biomass concentration): ≤ 50 mM; Maximum growth rate μmax ([3]; 10 mM additive): 0.45 h⁻¹; Maximum growth rate μmax ([3]; 20 mM additive): 0.47 h⁻¹; Maximum growth rate μmax ([3]; 30 mM additive): 0.27 h⁻¹; Maximum growth rate μmax ([3]; 40 mM additive): 0.24 h⁻¹; Maximum growth rate μmax ([3]; 50 mM additive): 0.20 h⁻¹; Maximum growth rate μmax ([6]; Example 1, 10 mM additive): 0.33 h⁻¹; Maximum growth rate μmax ([6]; Example 1, 15 mM additive): 0.32 h⁻¹; Maximum growth rate μmax ([6]; Example 1, 20 mM additive): 0.30 h⁻¹; Maximum growth rate μmax [6, 12]: 0.33 h⁻¹; Maximum growth rate μmax [6, 13]: 0.32 h⁻¹; Maximum growth rate μmax [6, 14]: 0.30 h⁻¹; increase in GFP expression over basal expression ([7]; 1.0 mM): No further increase; increase of induction compared to the uninduced system ([7]; 5 mM): 70%; induction ([4]; 0.5 mM): most strongly and fully induced; expression strength ([8]; 1.0 mM): close to the basal, uninduced expression; GFP expression from Pm relative to the one brought about by 1.0 mM 3-mBz ([8]; 5.0 mM inducer): 7%; GFP expression under Pm(ML1-17) control relative to the expression provided by Pm ([8]; compound as inducer): 70%; Maximum growth rate μmax ([9]; Example 1, 5.0 mM additive): almost completely impaired; Maximum growth rate μmax ([9]; Example 1, 5.0 mM additive, listed as K-3-F-benzoate): 0.01 h⁻¹; Maximum growth rate μmax ([9]; Example 1, 10 mM additive): no growth; Maximum growth rate μmax ([9]; Example 1, 15 mM additive): no growth; Maximum growth rate μmax ([9]; Example 1, 20 mM additive): no growth; Maximum growth rate μmax [9, 11]: almost completely impaired; Maximum growth rate μmax ([9]; Example 6 (improved method), 5.0 mM additive, listed as K-3-F-benzoate): 0.04 h⁻¹; Maximum growth rate μmax [9, 12]: no growth; Maximum growth rate μmax [9, 13]: no growth; Maximum growth rate μmax [9, 14]: no growth

**Q.** How did the “transcription initiation rate: quotient of OD630 nm-normalized fluorescence with the one of Ptac” value [10] turn out when “P14g: constitutive promoter, SEQ ID NO: 50 (DNA GCCCATTGACAAGGCTCTCGCGGCCAGGTATAATTGCACGA; expressed or natural sequence) [Strain P14g, reference compound]” was run?
**A.** 2.51

B1: PEM7: constitutive promoter, SEQ ID NO: 59 (nucleic acid)
DNA: TTGTTGACAATTAATCATCGGCATAGTATATCGGCATAGTATAATACGACAAGGTGAGGAACTAAACC
modifications: expressed or natural sequence
**Q.** For B1, which “transcription initiation rate: quotient of OD630 nm-normalized fluorescence with the one of Ptac” value [10] is on record?
**A.** 0.57
